# Source: patent US8546414B2, “Ion channel modulators and methods of use” (Vertex Pharmaceuticals Incorporated, priority 2004, dated 2013)
# Columns and labels:
# [1] = target: T1, CaV2.2 (Homo sapiens, UniProt Q00975); experiment: VIPR optical membrane potential assay with electrical stimulation, CaV2.2; format: cell-based; conditions: Table 9, CaV 2.2 receptors
# T1 construct: expressed in transfected cells; host or cells: HEK293
# Method: A. Optical Methods for Assaying CaV Inhibition Properties of Compounds:
# (§1) Antagonist properties of test compounds were assessed as follows. Cells expressing the CaV of interest were placed into microtiter plates. After an incubation period, the cells were stained with fluorescent dyes sensitive to the transmembrane potential. The test compounds were added to the microtiter plate. The cells were stimulated with electrical means to evoke a CaV dependent membrane potential change from unblocked channels, which was detected and measured with trans-membrane potential-sensitive dyes. Antagonists were detected as a decreased membrane potential response to the stimulus.
# (§2) VIPR® Optical Membrane Potential Assay Method with Electrical Stimulation
# The following is an example of how CaV2.2 inhibition activity is measured using the optical membrane potential method. Other subtypes are performed in an analogous mode in a cell line expressing the CaV of interest.
# HEK293 cells stably expressing CaV2.2 are plated into 96-well microtiter plates. After an appropriate incubation period, the cells are stained with the voltage sensitive dyes CC2-DMPE/DiSBAC2(3) as follows.
# (§3) 2X CC2-DMPE=20 μM CC2-DMPE: 10 mM CC2-DMPE is vortexed with an equivalent volume of 10% Pluronic, followed by vortexing in required amount of HBSS containing 10 mM HEPES. Each cell plate will require 5 mL of 2×CC2-DMPE. 50 μL of 2×CC2-DMPE is added to wells containing washed cells, resulting in a 10 μM final staining concentration. The cells are stained for 30 minutes in the dark at RT.
# Vortex in required amount of Bath X with beta-cyclodextrin. Each 96 well cell plate will require 5 ml of 2XCC2DMPE. Wash plate with ELx405 with Bath X, leaving a residual volume of 50 μL/well. Add 50 μL of 2XCC2DMPE & […] to each well. Stain for 30 minutes in the dark at RT.
# Allow solution to sit for 10 minutes. Slowly mix in 370 mM BaCl2. This solution can be used to solvate compound plates. Note that compound plates are made at 1.5× drug concentration and not the usual 2X. Wash CC2 stained plate, again, leaving residual volume of 50 μL. Add 100 uL/well of the AY17 solution. Stain for 15 minutes in the dark at RT. Run plate on the optical reader.
# (§4) The instrument comprises a microtiter plate handler, an optical system for exciting the coumarin dye while simultaneously recording the coumarin and oxonol emissions, a waveform generator, a current- or voltage-controlled amplifier, and a device for inserting electrodes in well. Under integrated computer control, this instrument passes user-programmed electrical stimulus protocols to cells within the wells of the microtiter plate.
# Insert or use electrodes into each well to be assayed.
# (§5) Use the current-controlled amplifier to deliver stimulation wave pulses for 3-5 s. Two seconds of pre-stimulus recording are performed to obtain the un-stimulated intensities. Five seconds of post-stimulation recording are performed to examine the relaxation to the resting state.
# (§6) Data are analyzed and reported as normalized ratios of background-subtracted emission intensities measured in the 460 nm and 580 nm channels. Background intensities are then subtracted from each assay channel. Background intensities are obtained by measuring the emission intensities during the same time periods from identically treated assay wells in which there are no cells. The response as a function of time is then reported as the ratios obtained using the following formula: […]
# (§7) The data is further reduced by calculating the initial (Ri) and final (Rf) ratios. These are the average ratio values during part or all of the pre-stimulation period, and during sample points during the stimulation period. The response to the stimulus R=Rf/Ri is then calculated.
# Control responses are obtained by performing assays in the presence of a compound with the desired properties (positive control), such as mibefradil, and in the absence of pharmacological agents (negative control).
# [2] = target: T2, NaV1.3 (Homo sapiens, UniProt Q9NY46); experiment: VIPR optical membrane potential assay with electrical stimulation, NaV1.3; format: cell-based; conditions: Table 9, NaV 1.3 receptors
# T2 construct: expressed in transfected cells; host or cells: HEK293
# Method: as §1, with “expressing the NaV of interest” for “expressing the CaV of interest”, “stimulated with either chemical or electrical means” for “stimulated with electrical means”, “evoke a NaV dependent membrane” for “evoke a CaV dependent membrane”
# as §2
# The following is an example of how NaV1.3 inhibition activity is measured using the optical membrane potential method#2. Other subtypes are performed in an analogous mode in a cell line expressing the NaV of interest.
# HEK293 cells stably expressing NaV1.3 are plated into 96-well microtiter plates. After an appropriate incubation period, the cells are stained with the voltage sensitive dyes CC2-DMPE/DiSBAC2(3) as follows.
# as §3, with “pluronic,” for “Pluronic,”
# 2X DISBAC2(3) with ABSC1=6 μM DISBAC2(3) and 1 mM ABSC1: The required amount of 10 mM DISBAC2(3) is added to a 50 ml conical tube and mixed with 1 μL 10% pluronic for each mL of solution to be made and vortexed together. Then HBSS/HEPES is added to make up 2× solution. Finally, the ABSC1 is added.
# The 2X DiSBAC2(3) solution can be used to solvate compound plates. Note that compound plates are made at 2× drug concentration. Wash stained plate again, leaving residual volume of 50 Add 50 μL/well of the 2X DiSBAC2(3) w/ABSC1. Stain for 30 minutes in the dark at RT.
# as §4
# as §5, with “• 1. Insert or use electrodes into each well to be assayed. • 2. Use” for “Use”, “3” for “3-5”, “state. Data Analysis” for “state.”
# as §6, §7
# Control responses are obtained by performing assays in the presence of a compound with the desired properties (positive control), such as tetracaine, and in the absence of pharmacological agents (negative control). Responses to the negative (N) and positive (P) controls are calculated as above. The compound antagonist activity A is defined as: […]
# T2 sequence (Q9NY46 whole entry): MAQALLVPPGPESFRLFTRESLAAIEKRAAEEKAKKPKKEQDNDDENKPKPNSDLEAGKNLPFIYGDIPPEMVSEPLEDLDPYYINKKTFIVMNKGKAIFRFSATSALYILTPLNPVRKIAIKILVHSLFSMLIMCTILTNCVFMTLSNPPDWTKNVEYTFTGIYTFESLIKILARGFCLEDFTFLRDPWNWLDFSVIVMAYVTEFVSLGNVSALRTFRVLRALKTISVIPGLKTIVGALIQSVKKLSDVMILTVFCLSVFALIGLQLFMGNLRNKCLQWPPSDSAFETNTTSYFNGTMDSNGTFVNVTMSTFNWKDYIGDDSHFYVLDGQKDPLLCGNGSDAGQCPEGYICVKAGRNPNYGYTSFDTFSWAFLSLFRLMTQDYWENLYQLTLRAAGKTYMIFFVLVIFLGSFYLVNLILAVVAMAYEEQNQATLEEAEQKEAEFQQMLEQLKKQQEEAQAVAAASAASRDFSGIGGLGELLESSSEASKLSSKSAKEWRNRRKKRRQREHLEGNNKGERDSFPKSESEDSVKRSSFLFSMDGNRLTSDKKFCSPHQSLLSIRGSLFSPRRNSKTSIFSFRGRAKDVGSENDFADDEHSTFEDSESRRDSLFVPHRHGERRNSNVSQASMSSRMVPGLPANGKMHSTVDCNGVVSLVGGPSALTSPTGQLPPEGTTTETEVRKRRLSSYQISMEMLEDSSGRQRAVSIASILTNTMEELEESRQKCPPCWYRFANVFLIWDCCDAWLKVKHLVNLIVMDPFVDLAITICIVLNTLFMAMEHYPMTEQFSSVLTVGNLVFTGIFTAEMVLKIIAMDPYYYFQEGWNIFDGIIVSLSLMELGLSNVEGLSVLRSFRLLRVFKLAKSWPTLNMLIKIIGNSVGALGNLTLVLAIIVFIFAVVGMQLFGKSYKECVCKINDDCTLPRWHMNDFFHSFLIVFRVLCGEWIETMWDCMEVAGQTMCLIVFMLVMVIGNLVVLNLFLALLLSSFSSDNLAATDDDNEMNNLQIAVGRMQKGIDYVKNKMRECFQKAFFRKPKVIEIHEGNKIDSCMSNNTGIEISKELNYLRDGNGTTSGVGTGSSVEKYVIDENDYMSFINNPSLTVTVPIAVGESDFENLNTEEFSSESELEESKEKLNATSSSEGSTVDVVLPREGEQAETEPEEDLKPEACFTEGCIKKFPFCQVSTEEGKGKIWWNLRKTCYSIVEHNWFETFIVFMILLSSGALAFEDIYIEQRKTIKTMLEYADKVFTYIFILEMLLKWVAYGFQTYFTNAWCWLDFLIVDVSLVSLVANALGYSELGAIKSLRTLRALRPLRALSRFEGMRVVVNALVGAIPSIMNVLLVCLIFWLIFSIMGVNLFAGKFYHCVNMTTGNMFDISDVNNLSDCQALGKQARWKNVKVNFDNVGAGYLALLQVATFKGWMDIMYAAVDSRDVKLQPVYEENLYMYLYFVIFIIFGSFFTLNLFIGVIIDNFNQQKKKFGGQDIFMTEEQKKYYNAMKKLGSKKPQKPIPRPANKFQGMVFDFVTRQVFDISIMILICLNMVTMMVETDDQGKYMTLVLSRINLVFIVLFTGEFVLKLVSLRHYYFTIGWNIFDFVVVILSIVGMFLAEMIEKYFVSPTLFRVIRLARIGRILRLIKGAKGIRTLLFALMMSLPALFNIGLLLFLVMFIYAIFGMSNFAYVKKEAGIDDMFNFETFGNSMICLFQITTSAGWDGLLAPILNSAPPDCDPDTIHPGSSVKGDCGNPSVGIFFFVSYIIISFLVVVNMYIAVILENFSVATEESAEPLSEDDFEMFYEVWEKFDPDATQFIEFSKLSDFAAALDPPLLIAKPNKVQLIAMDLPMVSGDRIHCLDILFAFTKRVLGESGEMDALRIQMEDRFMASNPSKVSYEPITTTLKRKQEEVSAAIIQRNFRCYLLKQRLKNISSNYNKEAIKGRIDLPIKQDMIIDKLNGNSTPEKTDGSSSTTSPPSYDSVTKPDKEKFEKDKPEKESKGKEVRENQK
Compound,IC50 [1],IC50 [2]
CCN(C)c1ncc(C(=O)N2CCC(C)CC2)c(-c2cccc(C)c2)n1 [compound 343],> 10 µM,> 10 µM
O=C(c1cnc(N2CCOCC2)nc1-c1ccc(-c2ccccc2)cc1)N1CCCCC1 [compound 229],> 10 µM,> 10 µM
CCN(Cc1cccc(C)c1)C(=O)c1cnc(N2CCOCC2)nc1-c1cccc(C)c1 [compound 266],> 10 µM,> 10 µM
CCCCNC(=O)c1cnc(N(C)CCc2ccc(OC)c(OC)c2)nc1-c1ccc(C#N)cc1 [compound 299],> 10 µM,> 10 µM
COCCNc1ncc(C(=O)N2CCOCC2)c(-c2cccc(C)c2)n1 [compound 321],> 10 µM,> 10 µM
CCC(C)NC(=O)c1cnc(N(C)CCc2ccc(OC)c(OC)c2)nc1-c1ccc(C#N)cc1 (stereo not drawn) [compound 331],> 10 µM,> 10 µM
COCCCNC(=O)c1cnc(NCC2CC2)nc1-c1cccc(C)c1 [compound 257],> 10 µM,> 10 µM
CCN(C)C(=O)c1cnc(N2CCCC(C(N)=O)C2)nc1-c1ccc(C#N)cc1 (stereo not drawn) [compound 284],> 10 µM,> 10 µM
O=C(NCC1CC1)c1cnc(N2CCOCC2)nc1-c1ccccc1F [compound 212],> 10 µM,
N#Cc1ccc(-c2nc(NCCc3cccc(F)c3)ncc2C(=O)NCc2ccccc2)cc1 [compound 249],> 10 µM,
Cc1cccc(-c2nc(NCc3cccc(Cl)c3)ncc2C(=O)N2CCOCC2)c1 [compound 318],> 10 µM,
CCN(C)C(=O)c1cnc(NCCc2ccc(OC)cc2)nc1-c1cccc(C)c1 [compound 234],> 10 µM,
CC1CCN(C(=O)c2cnc(NCc3ccccc3C(F)(F)F)nc2-c2ccc(C#N)cc2)CC1 [compound 221],> 10 µM,
CCCCNC(=O)c1cnc(NCCCC)nc1-c1cccc(C)c1 [compound 214],> 10 µM,
N#Cc1ccc(-c2nc(N3CCOCC3)ncc2C(=O)NCc2ccccc2C(F)(F)F)cc1 [compound 287],> 10 µM,
CN(C(=O)c1cnc(N2CCOCC2)nc1-c1ccccc1F)C1CCCCC1 [compound 283],> 10 µM,
"Cc1nc(N2CCOCC2)nc(-c2ccccc2F)c1C(=O)N(Cc1ccccc1)C(C)C [compound 338, N-benzyl-4-(2-fluorophenyl)-N-isopropyl-6-methyl-2-morpholinopyrimidine-5-carboxamide]",> 10 µM,
CCN(Cc1ccccc1)C(=O)c1cnc(NC2CCCC2)nc1-c1ccccc1F [compound 311],> 10 µM,
CCOCCN(CCOCC)C(=O)c1cnc(N2CCOCC2)nc1-c1ccccc1F [compound 315],> 10 µM,
CC1CCCCC1NC(=O)c1cnc(N2CCOCC2)nc1-c1ccccc1F (stereo not drawn) [compound 254],> 10 µM,
O=C(c1cnc(N2CCOCC2)nc1-c1ccccc1F)N1CCOCC1 [compound 275],> 10 µM,
CC(C)CN(C)C(=O)c1cnc(N2CCOCC2)nc1-c1ccccc1F [compound 215],> 10 µM,
O=C(NCC1CCCCC1)c1cnc(N2CCOCC2)nc1-c1ccccc1F [compound 328],> 10 µM,
CCC(C)NC(=O)c1cnc(N2CCOCC2)nc1-c1ccccc1F (stereo not drawn) [compound 213],> 10 µM,

# Other lines, results leading:
IC50 [1],IC50 [2],Compound
> 10 µM,> 10 µM,CCN(Cc1cccc(C)c1)C(=O)c1cnc(NCCCOC)nc1-c1ccccc1F [compound 268]
> 10 µM,> 10 µM,O=C(NCc1ccccc1C(F)(F)F)c1cnc(N2CCOCC2)nc1-c1ccccc1F [compound 242]
> 10 µM,> 10 µM,COc1ccc(CCN(C)c2ncc(C(=O)N3CC(C)CC(C)C3)c(-c3ccc(C#N)cc3)n2)cc1OC (stereo not drawn) [compound 285]
2 to 10 µM,> 10 µM,CC(C)CN(C)C(=O)c1cnc(NCCc2cccc(F)c2)nc1-c1ccc(C#N)cc1 [compound 295]
> 10 µM,> 10 µM,CCN(Cc1cccc(C)c1)C(=O)c1cnc(NCCCOC)nc1-c1ccc(C#N)cc1 [compound 265]
> 10 µM,> 10 µM,CCC(C)Nc1ncc(C(=O)N(C)CC)c(-c2cccc(C)c2)n1 (stereo not drawn) [compound 273]
2 to 10 µM,> 10 µM,CC(C)N(Cc1ccccc1)C(=O)c1cnc(N2CCOCC2)nc1-c1ccc(C#N)cc1 [compound 232]
2 to 10 µM,> 10 µM,CCC1CCC(C)N(C(=O)c2cnc(N(C)CC)nc2-c2ccccc2F)C1 (stereo not drawn) [compound 282]
> 10 µM,> 10 µM,COCCNc1ncc(C(=O)N(CC(C)C)CC(C)C)c(-c2cccc(C)c2)n1 [compound 348]
> 10 µM,> 10 µM,O=C(c1cnc(NCc2cccc(C(F)(F)F)c2)nc1-c1ccccc1F)N1CCOCC1 [compound 236]
2 to 10 µM,> 10 µM,CCC1CCC(C)N(C(=O)c2cnc(NCC3CC3)nc2-c2ccccc2F)C1 (stereo not drawn) [compound 219]
> 10 µM,> 10 µM,COCCCNC(=O)c1cnc(N2CCOCC2)nc1-c1ccccc1F [compound 324]
> 10 µM,> 10 µM,CC(=O)NCCNc1ncc(C(=O)N(Cc2ccccc2)C(C)C)c(-c2ccc(C#N)cc2)n1 [compound 319]
> 10 µM,,O=C(c1cnc(N2CCOCC2)nc1-c1ccccc1F)N1CCCC1 [compound 250]
> 10 µM,> 10 µM,COCCCNc1ncc(C(=O)NCC2CCCCC2)c(-c2cccc(C)c2)n1 [compound 330]
> 10 µM,> 10 µM,CCN(Cc1ccccc1)C(=O)c1cnc(N2CCCC(C(N)=O)C2)nc1-c1ccc(C#N)cc1 (stereo not drawn) [compound 259]
2 to 10 µM,,CCN(C)c1ncc(C(=O)N(Cc2ccccc2)C(C)C)c(-c2ccccc2F)n1 [compound 312]
2 to 10 µM,,CC(=O)N1CCN(c2ncc(C(=O)N3CCCCC3)c(-c3ccc(-c4ccccc4)cc3)n2)CC1 [compound 278]
2 to 10 µM,,CCN(Cc1cccc(C)c1)C(=O)c1cnc(N2CCCC2)nc1-c1ccccc1F [compound 335]
